Patent US20210128561A1, “MRGX Receptor Antagonists” (Rheinische-Friedrich-Wilhelms-Universität Bonn, priority 2019, published 2021)

Columns and labels:
[1] = biological target: T1, human MrgX4 L83S (Homo sapiens, UniProt Q96LA9, L83S); assay: β-arrestin assay (CHO β-arrestin human MrgX4 L83S); type: cell-based; settings: for % inhibition ± SEM: test concentration not given
T1 construct: expressed in transfected cells; host or cells: CHO beta-arrestin cells

[2] = biological target: T2, human wildtype MrgX2 (Homo sapiens, UniProt Q96LB1); assay: calcium assay (LN229 cells recombinantly expressing human wildtype MrgX2); type: cell-based; settings: for % inhibition ± SEM: test concentration not given
T2 construct: expressed in transfected cells; host or cells: LN229 cells
T2 sequence (Q96LB1 1-330): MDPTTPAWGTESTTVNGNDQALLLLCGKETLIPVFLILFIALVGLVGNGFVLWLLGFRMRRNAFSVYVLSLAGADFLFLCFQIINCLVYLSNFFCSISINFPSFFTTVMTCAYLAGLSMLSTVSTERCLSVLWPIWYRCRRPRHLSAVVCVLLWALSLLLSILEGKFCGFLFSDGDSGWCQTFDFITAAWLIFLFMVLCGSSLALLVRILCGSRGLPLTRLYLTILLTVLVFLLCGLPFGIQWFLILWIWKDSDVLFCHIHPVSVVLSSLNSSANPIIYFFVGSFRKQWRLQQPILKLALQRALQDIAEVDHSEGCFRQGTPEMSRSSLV

[3] = test system: human LAD2 mast cells; settings: 50 μM isoliquiritigenin vs. 30 μg/mL (≈31.2 μM) compound 48/80, LAD2; cited from earlier work

T1 sequence (Q96LA9 whole entry L83S): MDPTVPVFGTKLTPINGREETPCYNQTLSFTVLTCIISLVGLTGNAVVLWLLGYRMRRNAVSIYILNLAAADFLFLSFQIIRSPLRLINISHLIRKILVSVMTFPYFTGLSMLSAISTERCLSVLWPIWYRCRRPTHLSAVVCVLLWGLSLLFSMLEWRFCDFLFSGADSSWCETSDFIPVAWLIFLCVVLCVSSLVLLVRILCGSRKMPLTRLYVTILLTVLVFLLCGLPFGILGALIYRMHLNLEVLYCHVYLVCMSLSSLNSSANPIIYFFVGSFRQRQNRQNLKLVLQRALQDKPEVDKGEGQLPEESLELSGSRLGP

| SMILES | IC50 [1] | % inhibition ± SEM [1] | IC50 [2] | % inhibition ± SEM [2] | β-hexosaminidase release of compound 48/80 and isoliquiritigenin together [3] |
| --- | --- | --- | --- | --- | --- |
| CCc1c(C(C)C)[nH]c2nc3c(C)cccc3n2c1=O [B-38] | > 100000 nM | 15% | 54 ± 19.2 nM | – | – |
| CCc1c(C(C)C)[nH]c2nc3cc(C)c(C)cc3n2c1=O [B-39] | 87.7 ± 36.8 nM | – | 18.4 ± 5.4 nM | – | – |
| CCc1c(C(C)C)[nH]c2nc3cc(F)c(F)cc3n2c1=O [B-40] | 22.5 ± 2.4 nM | – | 0.42 ± 0.054 nM | – | – |
| CCc1c(C(C)C)[nH]c2nc3cc(Cl)c(Cl)cc3n2c1=O [B-41] | 477 ± 87 nM | – | 8.27 ± 0.82 nM | – | – |
| CCCc1c(C(C)C)[nH]c2nc3ccccc3n2c1=O [B-42] | 512 ± 107 nM | – | > 100000 nM | 68% | – |
| CCCc1[nH]c2nc3ccccc3n2c(=O)c1CC [B-43] | 278 ± 42 nM | – | – | – | – |
| CCCc1[nH]c2nc3cc(C)c(C)cc3n2c(=O)c1CC [B-44] | 1400 ± 360 nM | – | 199 ± 25 nM | – | – |
| CCCc1[nH]c2nc3ccccc3n2c(=O)c1CCC [B-45] | 214 ± 32 nM | – | > 100000 nM | 89% | – |
| CCc1c(-c2ccc(OC)cc2)[nH]c2nc3ccccc3n2c1=O [B-46] | 250 ± 61 nM | – | – | – | – |
| O=c1c2c([nH]c3nc4ccccc4n13)CCCC2 [B-55] | 5660 ± 1150 nM | – | > 100000 nM | 20% | – |
| CC(C)c1cc(=S)n2c(nc3ccccc32)[nH]1 [B-56] | 148 ± 42 nM | – | 3.94 ± 1.67 nM | – | – |
| Cc1cc(=S)n2c(nc3ccccc32)[nH]1 [B-57] | > 100000 nM | −4% | – | – | – |
| O=c1ccsc2nc3ccccc3n12 [B-58, 4H-benzo[4,5]imidazo[2,1-b][1,3]thiazin-4-one] | > 100000 nM | −44% | – | – | – |
| Cc1cc(=O)n2c(n1)oc1ccccc12 [B-59, 2-Methyl-4H-benzo[4,5]oxazolo[3,2-a]pyrimidin-4-one] | > 100000 nM | 13% | – | – | – |
| CSc1cc(C(C)C)nc2nc3ccccc3n12 [B-61] | > 10000 nM | 2% | – | – | – |
| Cc1cc(=O)n2c(nc3cc4ccccc4cc32)[nH]1 [B-62] | > 100000 nM | 18% | – | – | – |
| CC(C)c1cc(=O)n2c(nc3cc4ccccc4cc32)[nH]1 [B-63] | > 100000 nM | 6% | – | – | – |
| O=c1ccn2c(n1)[nH]c1ccccc12 [B-64, Benzo[4,5]imidazo[1,2-a]pyrimidin-2(10H)-one] | > 100000 nM | 0% | – | – | – |
| COC(=O)c1cc(=O)[nH]c2nc3ccccc3n12 [B-65] | > 100000 nM | 48% | – | – | – |

| SMILES | IC50 [1] | % inhibition ± SEM [1] | IC50 [2] | % inhibition ± SEM [2] | β-hexosaminidase release of compound 48/80 and isoliquiritigenin together [3] |
| --- | --- | --- | --- | --- | --- |
| NC1=NC=NC2Nc3ccccc3N12 (stereo not shown) [B-66] | > 100000 nM | 4% | – | – | – |
| Cc1[nH]c2nc3ccccc3n2c(=O)c1CCCl [C-67] | 8040 ± 1630 nM | – | – | – | – |
| CNCCc1c(C)[nH]c2nc3ccccc3n2c1=O [C-68] | > 100000 nM | 8% | – | – | – |
| Cc1[nH]c2nc3ccccc3n2c(=O)c1CCN=[N+]=[N-] [C-69] | > 100000 nM | 9% | – | – | – |
| CCc1c(C(C)C)[nH]c2nc3ccc(C)cc3n2c1=O [C-70] | 147 ± 15 nM | – | 0.352 ± 0.07 nM | – | – |
| CCc1c(C(C)C)[nH]c2nc3cc(C)ccc3n2c1=O [C-71] | 91 ± 29.2 nM | – | 0.446 ± 0.142 nM | – | – |
| CCc1c(C(C)C)nc2n(Cc3ccccc3)c3ccc(C)cc3n2c1=O [C-72] | > 10000 nM | 39% | – | – | – |
| CCc1c(C(C)C)nc2n(Cc3ccccc3)c3cc(C)ccc3n2c1=O [C-73] | > 10000 nM | 40% | – | – | – |
| CCc1c(C(C)C)[nH]c2nc3cc(F)ccc3n2c1=O [C-74] | 18 ± 4.4 nM | – | 1.26 ± 0.29 nM | – | – |
| CCc1c(C(C)C)[nH]c2nc3cc(Br)c(Br)cc3n2c1=O [C-75] | 890 ± 184 nM | – | 36.8 ± 8.4 nM | – | – |
| CCc1c(C(C)(C)C)[nH]c2nc3ccccc3n2c1=O [C-76] | 349 ± 65 nM | – | – | – | – |
| CCc1c(C2CC2)[nH]c2nc3ccccc3n2c1=O [C-77] | 1180 ± 330 nM | – | – | – | – |
| CCc1c(CC(C)C)[nH]c2nc3ccccc3n2c1=O [C-78] | 468 ± 52 nM | – | 51.3 ± 19.1 nM | – | – |
| CCc1c(-c2ccccc2)[nH]c2nc3ccccc3n2c1=O [C-79] | 540 ± 76 nM | – | > 10000 nM | 105% | – |
| CCc1c(-c2cccs2)[nH]c2nc3ccccc3n2c1=O [C-80] | > 10000 nM | 34% | – | – | – |
| CCc1c(C(C)C)[nH]c2nc3ccc(Cl)cc3n2c1=O [C-85] | 223 ± 19 nM | – | – | – | – |
| CCCc1c(CC)c(=O)n2c([nH]c3ccccc32)c1C#N [C-88] | 5540 ± 1740 nM | – | > 10000 nM | 86% | – |
| O=C(/C=C/c1ccc(O)cc1)c1ccc(O)cc1O [isoliquiritigenin, Isoliquiritigenin] | – | – | – | – | 40% |
